According to paper PMC5218480 (PLoS ONE, 2017):

Tested on: MV-4-11 cells
Assay: Gene expression microarray analysis (Affymetrix PrimeView) and GSEA
Format: cell-based, human
Parameters: RFU PODN (11730768_x_at) / Fold change /veh PODN (11730768_x_at) / RFU LINC00158 (11744669_a_at) / Fold change /veh LINC00158 (11744669_a_at) / RFU DUSP10 (11751237_a_at) / Fold change /veh DUSP10 (11751237_a_at) / RFU ID3 (11757404_x_at) / Fold change /veh ID3 (11757404_x_at) / RFU PLEKHG5 (11737974_s_at) / Fold change /veh PLEKHG5 (11737974_s_at) / RFU LRRC4B (11730491_at) / Fold change /veh LRRC4B (11730491_at) / RFU GIMAP4 (11747438_a_at) / Fold change /veh GIMAP4 (11747438_a_at) / RFU KRT8 (11758183_x_at) / Fold change /veh KRT8 (11758183_x_at) / RFU CNN1 (11734310_a_at) / Fold change /veh CNN1 (11734310_a_at) / RFU VPS37D (11726825_at) / Fold change /veh VPS37D (11726825_at) / RFU C10orf10 (11716522_x_at) / Fold change /veh C10orf10 (11716522_x_at) / RFU KIR2DL2 /// KIR2DL4 /// KIR2DL5A /// KIR2DL5B /// KIR2DS1 /// KIR2DS2 /// KIR2DS3 /// KIR2DS4 /// KIR3DL3 /// KIR3DL3 /// KIR3DS1 (11738374_at) / Fold change /veh KIR2DL2 /// KIR2DL4 /// KIR2DL5A /// KIR2DL5B /// KIR2DS1 /// KIR2DS2 /// KIR2DS3 /// KIR2DS4 /// KIR3DL3 /// KIR3DL3 /// KIR3DS1 (11738374_at) / RFU C1QL1 (11718748_at) / Fold change /veh C1QL1 (11718748_at) / RFU TMPRSS4 (11747572_a_at) / Fold change /veh TMPRSS4 (11747572_a_at) / RFU HAMP (11756126_x_at) / Fold change /veh HAMP (11756126_x_at) / RFU RNFT2 (11725882_a_at) / Fold change /veh RNFT2 (11725882_a_at) / RFU NR4A2 (11747474_a_at) / Fold change /veh NR4A2 (11747474_a_at) / RFU ABCC12 (11746883_a_at) / Fold change /veh ABCC12 (11746883_a_at) / RFU TMEM136 (11760407_x_at) / Fold change /veh TMEM136 (11760407_x_at) / RFU CLDN22 /// WWC2 (11732394_at) / Fold change /veh CLDN22 /// WWC2 (11732394_at) / RFU HLA-DPB1 (11760878_x_at) / Fold change /veh HLA-DPB1 (11760878_x_at) / RFU SPINT1 (11716480_a_at) / Fold change /veh SPINT1 (11716480_a_at) / RFU GAP43 (11754022_s_at) / Fold change /veh GAP43 (11754022_s_at) / RFU A4GNT (11735810_at) / Fold change /veh A4GNT (11735810_at) / RFU PRB3 (11715151_x_at) / Fold change /veh PRB3 (11715151_x_at) / RFU TUBB4B (11761932_at) / Fold change /veh TUBB4B (11761932_at) / RFU CAPN14 (11732068_a_at) / Fold change /veh CAPN14 (11732068_a_at) / RFU TMCC2 (11721928_a_at) / Fold change /veh TMCC2 (11721928_a_at) / RFU IRGQ (11745062_a_at) / Fold change /veh IRGQ (11745062_a_at) / RFU FAM174B (11720279_a_at) / Fold change /veh FAM174B (11720279_a_at) / RFU TMPRSS4 (11748680_a_at) / Fold change /veh TMPRSS4 (11748680_a_at) / RFU FAM212B (11763350_a_at) / Fold change /veh FAM212B (11763350_a_at) / RFU PLEKHG5 (11743358_a_at) / Fold change /veh PLEKHG5 (11743358_a_at) / RFU ZSCAN30 (11745921_a_at) / Fold change /veh ZSCAN30 (11745921_a_at) / RFU CMKLR1 (11741424_a_at) / Fold change /veh CMKLR1 (11741424_a_at) / RFU LOC101060620 /// MAPK8IP1 (11723275_at) / Fold change /veh LOC101060620 /// MAPK8IP1 (11723275_at) / RFU SPTSSB (11747773_x_at) / Fold change /veh SPTSSB (11747773_x_at) / RFU PRSS12 (11739890_at) / Fold change /veh PRSS12 (11739890_at) / RFU BIN1 (11741810_x_at) / Fold change /veh BIN1 (11741810_x_at) / RFU WNT11 (11732464_a_at) / Fold change /veh WNT11 (11732464_a_at) / RFU C10orf10 (11716521_a_at) / Fold change /veh C10orf10 (11716521_a_at) / RFU C5orf56 (11738089_at) / Fold change /veh C5orf56 (11738089_at) / RFU CYB561 (11721691_x_at) / Fold change /veh CYB561 (11721691_x_at) / RFU ANKRD19P (11752326_a_at) / Fold change /veh ANKRD19P (11752326_a_at) / RFU OR2T12 /// OR2T33 /// OR2T8 (11738714_s_at) / Fold change /veh OR2T12 /// OR2T33 /// OR2T8 (11738714_s_at) / RFU VCAN (11748164_a_at) / Fold change /veh VCAN (11748164_a_at) / RFU JSRP1 (11732532_at) / Fold change /veh JSRP1 (11732532_at) / RFU KRTAP10-11 (11738290_x_at) / Fold change /veh KRTAP10-11 (11738290_x_at) / RFU MYO3A (11730013_a_at) / Fold change /veh MYO3A (11730013_a_at) / RFU EBF3 (11725865_a_at) / Fold change /veh EBF3 (11725865_a_at) / RFU CAMK2N1 (11719241_x_at) / Fold change /veh CAMK2N1 (11719241_x_at) / RFU C5orf56 (11738088_a_at) / Fold change /veh C5orf56 (11738088_a_at) / RFU OLFML3 (11715873_a_at) / Fold change /veh OLFML3 (11715873_a_at) / RFU LOC100653217 /// NTM (11731650_a_at) / Fold change /veh LOC100653217 /// NTM (11731650_a_at) / RFU MAPK11 (11762145_a_at) / Fold change /veh MAPK11 (11762145_a_at) / RFU FIZ1 (11724087_x_at) / Fold change /veh FIZ1 (11724087_x_at) / RFU OASL (11726364_x_at) / Fold change /veh OASL (11726364_x_at) / RFU SOX15 (11748057_x_at) / Fold change /veh SOX15 (11748057_x_at) / RFU CD79A (11719716_a_at) / Fold change /veh CD79A (11719716_a_at) / RFU HIST1H1D (11736915_at) / Fold change /veh HIST1H1D (11736915_at) / RFU CASKIN2 (11723855_a_at) / Fold change /veh CASKIN2 (11723855_a_at) / RFU LOC730098 (11760151_x_at) / Fold change /veh LOC730098 (11760151_x_at) / RFU OR4N2 (11742367_at) / Fold change /veh OR4N2 (11742367_at) / RFU PRRT2 (11749266_a_at) / Fold change /veh PRRT2 (11749266_a_at) / RFU SNX32 (11753110_a_at) / Fold change /veh SNX32 (11753110_a_at) / RFU CDHR5 (11726645_a_at) / Fold change /veh CDHR5 (11726645_a_at) / RFU RCAN1 (11760418_a_at) / Fold change /veh RCAN1 (11760418_a_at) / RFU FAM167A (11723789_a_at) / Fold change /veh FAM167A (11723789_a_at) / RFU FAM26E (11764081_at) / Fold change /veh FAM26E (11764081_at) / RFU ISYNA1 (11749810_s_at) / Fold change /veh ISYNA1 (11749810_s_at) / RFU ACY1 (11761880_at) / Fold change /veh ACY1 (11761880_at) / RFU 11764098_at / Fold change /veh 11764098_at / RFU SAMD14 (11745864_x_at) / Fold change /veh SAMD14 (11745864_x_at) / RFU NPB (11741838_a_at) / Fold change /veh NPB (11741838_a_at) / RFU TMPRSS6 (11731388_a_at) / Fold change /veh TMPRSS6 (11731388_a_at) / RFU KRTAP10-2 (11738614_at) / Fold change /veh KRTAP10-2 (11738614_at) / RFU ARHGAP8 /// PRR5-ARHGAP8 (11727945_x_at) / Fold change /veh ARHGAP8 /// PRR5-ARHGAP8 (11727945_x_at) / RFU KRTAP5-7 /// NADSYN1 (11734609_at) / Fold change /veh KRTAP5-7 /// NADSYN1 (11734609_at) / RFU RASL12 (11751679_a_at) / Fold change /veh RASL12 (11751679_a_at) / RFU CDKN2B (11736163_a_at) / Fold change /veh CDKN2B (11736163_a_at) / RFU PRF1 (11729649_at) / Fold change /veh PRF1 (11729649_at) / RFU, ZNF638 /// ZNF638-IT1 / Fold change vs veh, ZNF638 /// ZNF638-IT1 / RFU, PANK3 / Fold change vs veh, PANK3 / RFU, SH3YL1 / Fold change vs veh, SH3YL1 / RFU, ZEB2 / Fold change vs veh, ZEB2 / RFU, NRIP1 / Fold change vs veh, NRIP1 / RFU, PTTG1IP / Fold change vs veh, PTTG1IP / RFU, CAPN2 / Fold change vs veh, CAPN2 / RFU, MED14 / Fold change vs veh, MED14 / RFU, SNORA58 / Fold change vs veh, SNORA58 / RFU, C1orf63 / Fold change vs veh, C1orf63 / RFU, LRRFIP1 / Fold change vs veh, LRRFIP1 / RFU, NDUFAF7 / Fold change vs veh, NDUFAF7 / RFU, SLC12A2 / Fold change vs veh, SLC12A2 / RFU, IBTK / Fold change vs veh, IBTK / RFU, ESF1 / Fold change vs veh, ESF1 / Fold change vs veh, TMEM50B / RFU, TAOK1 / Fold change vs veh, TAOK1 / RFU, ACBD3 / Fold change vs veh, ACBD3 / RFU, TMA16 / Fold change vs veh, TMA16 / RFU, RWDD3 / Fold change vs veh, RWDD3 / RFU, BCAT1 / Fold change vs veh, BCAT1 / RFU, EDEM3 / Fold change vs veh, EDEM3 / RFU, TMEM33 / Fold change vs veh, TMEM33 / RFU, WDR75 / Fold change vs veh, WDR75 / RFU, AHCTF1 / Fold change vs veh, AHCTF1 / RFU, TFRC / Fold change vs veh, TFRC / RFU, ZDHHC17 / Fold change vs veh, ZDHHC17 / RFU, NOM1 / Fold change vs veh, NOM1 / RFU, ARL8B / Fold change vs veh, ARL8B / RFU, ZBTB11 / Fold change vs veh, ZBTB11 / RFU, TAMM41 / Fold change vs veh, TAMM41 / RFU, KIAA1704 /// LOC100996395 / Fold change vs veh, KIAA1704 /// LOC100996395 / RFU, ING1 / Fold change vs veh, ING1 / RFU, TRMT61B / Fold change vs veh, TRMT61B / RFU, FUBP3 / Fold change vs veh, FUBP3 / RFU, TP53 / Fold change vs veh, TP53 / RFU, TNKS2 / Fold change vs veh, TNKS2 / RFU, ZFP14 / Fold change vs veh, ZFP14 / RFU, ACTR2 / Fold change vs veh, ACTR2 / RFU, PPP3R1 / Fold change vs veh, PPP3R1 / RFU, PIK3R1 / Fold change vs veh, PIK3R1 / RFU, HNRNPA1 / Fold change vs veh, HNRNPA1 / RFU, RNF170 / Fold change vs veh, RNF170 / RFU, ZNF28 / Fold change vs veh, ZNF28 / RFU, RNGTT / Fold change vs veh, RNGTT / RFU, OGT / Fold change vs veh, OGT / RFU, BRD1 / Fold change vs veh, BRD1 / RFU, MARS / Fold change vs veh, MARS / RFU, ZNF655 / Fold change vs veh, ZNF655 / RFU, FAHD1 / Fold change vs veh, FAHD1 / RFU, BDP1 / Fold change vs veh, BDP1 / RFU, LRRCC1 / Fold change vs veh, LRRCC1 / RFU, ARID1A / Fold change vs veh, ARID1A / RFU, ZNF146 / Fold change vs veh, ZNF146 / RFU, ZNF330 / Fold change vs veh, ZNF330 / RFU, GPN3 / Fold change vs veh, GPN3 / RFU, C9orf123 / Fold change vs veh, C9orf123 / RFU, N4BP2L2 / Fold change vs veh, N4BP2L2 / RFU, ARFIP1 / Fold change vs veh, ARFIP1 / RFU, FAM179B / Fold change vs veh, FAM179B / RFU, BCL10 / Fold change vs veh, BCL10 / RFU, UHRF1BP1L / Fold change vs veh, UHRF1BP1L / RFU, BET1 / Fold change vs veh, BET1 / RFU, CNOT2 / Fold change vs veh, CNOT2 / RFU, ZNF268 / Fold change vs veh, ZNF268 / Fold change vs veh, ZNF507 / RFU, DGCR2 / Fold change vs veh, DGCR2 / RFU, WDSUB1 / Fold change vs veh, WDSUB1 / Fold change vs veh, HSP90B1 /// MIR3652 / RFU, ADSS / Fold change vs veh, ADSS / RFU, GK / Fold change vs veh, GK / RFU, ZNF148 / Fold change vs veh, ZNF148 / RFU, TAF9 / Fold change vs veh, TAF9 / RFU, SLC1A5 / Fold change vs veh, SLC1A5 / RFU, SLMO2 / Fold change vs veh, SLMO2 / RFU, ABCC4 / Fold change vs veh, ABCC4 / RFU, LOC101060439 /// RAP1B / Fold change vs veh, LOC101060439 /// RAP1B / RFU, RFX7 / Fold change vs veh, RFX7 / RFU, GTPBP10 / Fold change vs veh, GTPBP10 / RFU, CNEP1R1 / Fold change vs veh, CNEP1R1 / RFU, BIVM-ERCC5 /// ERCC5 / Fold change vs veh, BIVM-ERCC5 /// ERCC5 / RFU, ILF3 / Fold change vs veh, ILF3 / RFU 11762660_at / Fold change /veh 11762660_at / RFU VCAN (11757783_s_at) / Fold change /veh VCAN (11757783_s_at) / RFU DDX43 (11728927_at) / Fold change /veh DDX43 (11728927_at) / RFU KRT8 (11758188_x_at) / Fold change /veh KRT8 (11758188_x_at) / RFU NKD1 (11759106_at) / Fold change /veh NKD1 (11759106_at) / RFU SRD5A1 (11742802_a_at) / Fold change /veh SRD5A1 (11742802_a_at) / RFU TPSAB1 /// TPSB2 (11721975_s_at) / Fold change /veh TPSAB1 /// TPSB2 (11721975_s_at) / RFU GSTM3 (11746129_a_at) / Fold change /veh GSTM3 (11746129_a_at) / RFU IL23R (11737362_x_at) / Fold change /veh IL23R (11737362_x_at) / RFU TMEM51 (11727254_a_at) / Fold change /veh TMEM51 (11727254_a_at) / RFU PIWIL2 (11732686_x_at) / Fold change /veh PIWIL2 (11732686_x_at) / RFU ORM1 (11744905_x_at) / Fold change /veh ORM1 (11744905_x_at) / RFU CCDC152 (11743942_at) / Fold change /veh CCDC152 (11743942_at) / RFU ECM1 (11717891_a_at) / Fold change /veh ECM1 (11717891_a_at) / RFU IL23R (11748794_a_at) / Fold change /veh IL23R (11748794_a_at) / RFU TNFAIP8L3 (11732012_x_at) / Fold change /veh TNFAIP8L3 (11732012_x_at) / RFU MBOAT4 (11741988_at) / Fold change /veh MBOAT4 (11741988_at) / RFU 11764193_at / Fold change /veh 11764193_at / RFU TMEM53 (11763286_at) / Fold change /veh TMEM53 (11763286_at) / RFU MAGEB2 (11727129_at) / Fold change /veh MAGEB2 (11727129_at) / RFU TMEM200A (11744735_a_at) / Fold change /veh TMEM200A (11744735_a_at) / RFU CCDC152 (11751479_a_at) / Fold change /veh CCDC152 (11751479_a_at) / RFU FAM211A (11726209_a_at) / Fold change /veh FAM211A (11726209_a_at) / RFU RGS16 (11746705_a_at) / Fold change /veh RGS16 (11746705_a_at) / RFU VCAN (11755009_s_at) / Fold change /veh VCAN (11755009_s_at) / RFU RHOB (11743442_s_at) / Fold change /veh RHOB (11743442_s_at) / RFU RGS16 (11720943_a_at) / Fold change /veh RGS16 (11720943_a_at) / RFU RGS16 (11720944_at) / Fold change /veh RGS16 (11720944_at) / RFU, VPS4B / Fold change vs veh, VPS4B / RFU, CREB1 / Fold change vs veh, CREB1 / RFU, DNAJC13 / Fold change vs veh, DNAJC13 / RFU, GNAQ / Fold change vs veh, GNAQ / RFU, CDK5R1 / Fold change vs veh, CDK5R1 / RFU, ZRANB3 / Fold change vs veh, ZRANB3 / RFU, CUL4A / Fold change vs veh, CUL4A / RFU, CCNY / Fold change vs veh, CCNY / RFU, UFL1 / Fold change vs veh, UFL1 / RFU, COG3 / Fold change vs veh, COG3 / RFU, DIAPH2 / Fold change vs veh, DIAPH2 / RFU, SKA2 / Fold change vs veh, SKA2 / RFU, AFF3 / Fold change vs veh, AFF3 / RFU, LMF1 / Fold change vs veh, LMF1 / RFU, IPO11 / Fold change vs veh, IPO11 / RFU, DFFB / Fold change vs veh, DFFB / RFU, FOXP1 / Fold change vs veh, FOXP1 / RFU, CARD8 / Fold change vs veh, CARD8 / RFU, STRN3 / Fold change vs veh, STRN3 / RFU, ADK / Fold change vs veh, ADK / RFU, RASSF2 / Fold change vs veh, RASSF2 / RFU, WIPF1 / Fold change vs veh, WIPF1 / RFU, LARP1B / Fold change vs veh, LARP1B / RFU, RASA1 / Fold change vs veh, RASA1 / RFU, RB1 / Fold change vs veh, RB1 / RFU, PPFIA1 / Fold change vs veh, PPFIA1 / RFU, MAT2A / Fold change vs veh, MAT2A / RFU, CCT5 / Fold change vs veh, CCT5 / RFU, WDR92 / Fold change vs veh, WDR92 / RFU, CUX1 / Fold change vs veh, CUX1 / RFU, TTC7A / Fold change vs veh, TTC7A / RFU, TMEM135 / Fold change vs veh, TMEM135 / RFU, DEPTOR / Fold change vs veh, DEPTOR / RFU, CPM / Fold change vs veh, CPM / RFU, DNAJB6 / Fold change vs veh, DNAJB6 / RFU, CACNA2D3 / Fold change vs veh, CACNA2D3 / RFU, DTX4 / Fold change vs veh, DTX4 / RFU, TFCP2 / Fold change vs veh, TFCP2 / RFU, GMCL1 /// GMCL1P1 / Fold change vs veh, GMCL1 /// GMCL1P1 / RFU, AEBP2 / Fold change vs veh, AEBP2 / RFU, SNHG1 /// SNORD22 /// SNORD25 /// SNORD26 /// SNORD27 /// SNORD28 /// SNORD29 /// SNORD31 / Fold change vs veh, SNHG1 /// SNORD22 /// SNORD25 /// SNORD26 /// SNORD27 /// SNORD28 /// SNORD29 /// SNORD31 / Fold change (Aza/veh), C12orf56 (ProbeSet 11735607_a_at) / Fold change (ACY-1035/veh), C12orf56 (ProbeSet 11735607_a_at) / Fold change (Aza/veh), FGFR1OP (ProbeSet 11751329_s_at) / Fold change (ACY-1035/veh), FGFR1OP (ProbeSet 11751329_s_at) / Fold change (Aza/veh), VPS36 (ProbeSet 11739960_a_at) / Fold change (ACY-1035/veh), VPS36 (ProbeSet 11739960_a_at) / RFU SYPL1 (11715823_x_at) / Fold change /veh SYPL1 (11715823_x_at) / RFU IGFBP7 (11715501_s_at) / Fold change /veh IGFBP7 (11715501_s_at) / RFU REEP3 (11722064_at) / Fold change /veh REEP3 (11722064_at) / RFU IGLL1 (11728026_x_at) / Fold change /veh IGLL1 (11728026_x_at): dose or concentration left out as unconfirmed
Conditions: ProbeSet 11716931_at; LIST B

With `Nc1ccc(-c2cccs2)cc1NC(=O)c1ccc2c(c1)cc(C1CC1)n2CCN1CCOCC1` [ACY-1035] as the compound, how does the “Fold change vs veh, DGCR2” value read?
The value was 1.13.
